Data published in ChEMBL document CHEMBL1201862, “PubChem BioAssay data set” (2004).
One block for each compound: values may come before it. Activity calls are given as the source filed them.

Tests used:
[1] = ADAM10 protease inhibitors, dose response, selectivity assay for ADAM17 exosite inhibitor project, biochemical, FRET peptide substrate, recombinant human ADAM10 (AID 743259);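 note: ADAM10 enzyme cleaving a FRET peptide substrate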
[2] = biological target: T1, Disintegrin and metalloproteinase domain-containing protein 17 (Homo sapiens, UniProt P78536); experiment: exosite inhibitors of ADAM17, dose response, biochemical (AID 743260)
[3] = ADAM10 inhibitors, peptide cleavage, dose response, biochemical, QFRET (AID 743254);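 note: ADAM10 enzyme with the DM2 quenched FRET peptide as substrate; EDANS fluorescence gain as the protease cuts the substrate; inhibitor potency against ADAM10 proteolytic activity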
[4] = biological target: T1, Disintegrin and metalloproteinase domain-containing protein 17; experiment: ADAM17 protease inhibitors, dose response, counter-screen for ADAM10 exosite inhibitor project, biochemical, quenched FRET substrate (AID 743253)
[5] = Luminescence Cell-Based Dose Retest to Confirm Inhibitors of Cancer Stem Cells. [Related pubchem assays (depositor defined):AID2717, AID2721]; assay type: functional; conditions: Homo sapiens
Kallikrein-7 = Kallikrein-7 (Homo sapiens, UniProt P49862); experiment: Fluorescence Intensity-based biochemical primary high throughput dose response assay to identify activators of kallikrein-7 (K7) zymogen.
[6] = EDANS-DABCYL fluorescence interference, concentration series, dose response, artefact control for kallikrein-7 zymogen activator project, biochemical, fluorescence intensity, triplicate (AID 720493)
cells = conditions: A549
[7] = HepG2 cell cytotoxicity, dose response, cytotoxicity control, ATP luminescence, cherry-pick, set 6 (AID 1053125); assay type: functional, cell-based
Bcl-2-like protein 1 = Bcl-2-like protein 1 (Homo sapiens, UniProt Q07817); experiment: BCL-XL inhibitors, dose response, selectivity assay for MCL1 inhibitor project, biochemical, fluorescence polarization, 1536-well (AID 2218)
Caspase-7 = Caspase-7 (Homo sapiens, UniProt P55210); experiment: human caspase-7 inhibitors, dose response, selectivity assay for caspase-6 inhibitor project, biochemical, DEVD-R110 fluorescence, cherry-pick (AID 743295)
Caspase-6 = biological target: T2, Caspase-6 (Homo sapiens, UniProt P55212); experiment: human caspase-6 inhibitors, dose response, biochemical, VEID-R110 fluorescence, cherry-pick (AID 720632)
T2 sequence (P55212 whole entry): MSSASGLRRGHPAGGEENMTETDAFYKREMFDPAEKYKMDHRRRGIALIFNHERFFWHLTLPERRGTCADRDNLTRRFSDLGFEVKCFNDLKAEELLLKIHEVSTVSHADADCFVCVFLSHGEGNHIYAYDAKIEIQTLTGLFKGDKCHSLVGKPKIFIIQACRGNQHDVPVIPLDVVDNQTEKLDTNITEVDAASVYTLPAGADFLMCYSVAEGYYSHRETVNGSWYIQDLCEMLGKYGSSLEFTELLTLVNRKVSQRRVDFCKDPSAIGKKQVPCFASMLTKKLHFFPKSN

[8] = biological target: Induced myeloid leukemia cell differentiation protein Mcl-1 (Homo sapiens, UniProt Q07820); experiment: MCL1-BIM BH3 interaction inhibitors, dose response, biochemical, fluorescence polarization, BIM-BH3 peptide, 1536-well (AID 2217)
Caspase-8 = Caspase-8 (Homo sapiens, UniProt Q14790); experiment: caspase-8 inhibition counter-screen, dose response, selectivity assay for caspase-6 inhibitor project, biochemical, Z-IETD-R110 fluorescence, cherry-picked samples (AID 743294)
[9] = non-specific cell cytotoxicity, dose response, cytotoxicity control for PAX8 inhibitor project, plate reader, dry powder samples (AID 743021); assay type: functional, cell-based
[10] = biological target: T3, Microphthalmia-associated transcription factor (Homo sapiens, UniProt O75030); experiment: TRPM1 promoter luciferase signal decrease, dose response, MITF inhibitor project, cell-based, SK-MEL-5, cherry-picked, set 3 (AID 493073); assay type: functional
T3 sequence (O75030 whole entry): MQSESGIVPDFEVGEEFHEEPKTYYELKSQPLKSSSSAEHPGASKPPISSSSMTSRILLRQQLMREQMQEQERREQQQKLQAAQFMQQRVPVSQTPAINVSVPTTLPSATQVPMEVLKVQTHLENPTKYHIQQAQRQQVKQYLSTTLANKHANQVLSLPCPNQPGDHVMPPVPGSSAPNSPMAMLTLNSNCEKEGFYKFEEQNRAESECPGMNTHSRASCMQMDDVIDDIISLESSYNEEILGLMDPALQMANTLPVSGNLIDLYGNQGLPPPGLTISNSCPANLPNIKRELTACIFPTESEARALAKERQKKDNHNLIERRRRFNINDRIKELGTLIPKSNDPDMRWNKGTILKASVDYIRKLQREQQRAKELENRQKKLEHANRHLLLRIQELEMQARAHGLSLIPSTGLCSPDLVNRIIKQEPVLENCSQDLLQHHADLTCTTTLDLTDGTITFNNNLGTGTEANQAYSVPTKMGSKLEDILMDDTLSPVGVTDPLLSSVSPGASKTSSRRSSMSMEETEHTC

[11] = CEM21 lymphoblast cell cytotoxicity, dose response, cytotoxicity control for viral fusion inhibitor project, CellTiter-Glo luminescence, cherry-picked (AID 652042); assay type: functional, cell-based;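 note: potency for signal decrease meaning cytotoxicity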
[12] = inhibitors of HIV Env-driven cell fusion, dose response, cherry-pick (AID 652057); assay type: functional, cell-based
[13] = ZM109 Env clade C HIV-1 fusion inhibitors, dose response, HeLa effector, CEM target cells, luciferase, cherry-pick (AID 652058); assay type: functional, cell-based
[14] = HEK293T cell cytotoxicity, dose response, cytotoxicity control for HIV Vif inhibitor project, cherry-picks (AID 652208); assay type: functional, cell-based
[15] = inhibitors of clade B AD8 Env fusion, dose response, cell-based, cherry-pick (AID 652062); assay type: functional;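 note: luciferase signal from cell-cell fusion driven by HIV-1 clade B AD8 Env; potency is for inhibitors of fusion seen as a drop in luminescence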
[16] = off-target signal loss in HeLa-CEM21 co-culture – HeLa F-luc CTL cells, cherry-picked, counter-screen for HIV-1 Env fusion inhibitor project, dose response (AID 652040); assay type: functional, cell-based;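 note: potency for signal decrease marking cytotoxic or nonspecific inhibition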
Paired box protein Pax-8 = Paired box protein Pax-8 (Homo sapiens, UniProt Q06710); experiment: inhibitors of PAX8-driven TPO luciferase reporter, dose response, RMG-I cells, cherry-pick (AID 687027); assay type: functional, cell-based;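 note: luciferase reporter driven by Pax8 target thyroperoxidase promoter measured by SteadyGlo luminescence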
[17] = biological target: Protein disulfide-isomerase (Homo sapiens, UniProt P07237); experiment: PDI inhibitors, insulin turbidity readout, confirmation, biochemical, dry powder samples, set 2 (AID 652146)
[18] = HepG2 cell cytotoxicity, dose response, cytotoxicity control, dry powder samples (AID 720568); assay type: functional, cell-based
Fatty acid synthase = Fatty acid synthase (Homo sapiens, UniProt P49327); experiment: FAS thioesterase domain inhibitors, SAR follow-up, biochemical, endpoint fluorescence intensity, powder samples (AID 652164); assay type: functional
[19] = Shn3 3'UTR reporter inhibitors, dose response, cell-based, Clone20 osteoblasts, firefly luciferase, cherry-picked (AID 624132); assay type: functional;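 note: firefly luciferase luminescence from reporter carrying the Shn3 3'UTR in osteoblasts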
[20] = cytotoxicity in COV434 cells, dose response, cytotoxicity control for PAX8 inhibitor project, cell-based, plate reader, dry powder, SA7 (AID 743145); assay type: functional
[21] = cytotoxicity in OV-90 ovarian cancer cells, dose response, PAX8 inhibitor project, cell-based, plate reader, dry powder, SA8 (AID 743149); assay type: functional
[22] = cytotoxicity dependent on PAX8, dose response, cell-based, plate reader, dry powder (AID 743049); assay type: functional
[23] = IGROV1 ovarian cancer cell cytotoxicity, dose response, PAX8 inhibitor project, plate reader, dry powder samples (AID 743043); assay type: functional, cell-based; conditions: IGROV-1
HEK293 = experiment: inhibitors of LMP1-driven NF-kB reporter, dose response, cell-based, HEK293, luciferase, cherry-pick (AID 588343); assay type: functional; conditions: Homo sapiens
[24] = PAX5 activity inhibitors, dose response, selectivity assay for PAX8 inhibitor project, cell-based, plate reader, dry powder samples (AID 743047); assay type: functional;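 note: HEK293 cells carrying a Pax5 driven CD19 promoter luciferase reporter; potency of inhibitors that lower reporter luminescence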
[25] = HepG2 cell cytotoxicity, dose response, cytotoxicity control for Shn3 inhibitor project, CellTiter-Glo, cherry-picked (AID 624134); assay type: functional, cell-based
[26] = A2780 ovarian cancer cell cytotoxicity, dose response, cytotoxicity control, plate reader, dry powder samples (AID 743046); assay type: functional, cell-based
[27] = NIH:OVCAR-3 ovarian cancer cell cytotoxicity, dose response, PAX8 inhibitor project, plate reader, dry powder samples (AID 743044); assay type: functional, cell-based
[28] = biological target: Heat shock protein HSP 90-alpha (Homo sapiens, UniProt P07900); assay type: functional, organism-based
[29] = cytotoxicity in COV362 ovarian cancer cells, dose response, cytotoxicity control for PAX8 inhibitor project, cell-based, plate reader, dry powder, SA12 (AID 743144); assay type: functional
[30] = control 3'UTR Renilla luciferase suppression, dose response, counter-screen for Shn3 inhibitor project, cell-based, Clone20-Shn3RL, cherry-picked (AID 624133); assay type: functional
[31] = IOSE-T80 ovarian epithelial cell cytotoxicity, dose response, cytotoxicity control for PAX8 inhibitor project, plate reader, dry powder samples (AID 743045); assay type: functional, cell-based
[32] = cytotoxicity in OVCAR4 cells, dose response, cytotoxicity control for PAX8 inhibitor project, cell-based, plate reader, dry powder, SA11 (AID 743150); assay type: functional; conditions: OVCAR-4
[33] = PAX2 cell-based inhibition, dose response, selectivity assay for PAX8 inhibitor project, plate reader, dry powder samples (AID 743048); assay type: functional;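 note: HEK293 cells carrying a WT1 promoter luciferase reporter driven by expressed Pax2; potency is for inhibition of Pax2 driven reporter signal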

T1 sequence (P78536 whole entry, the tested form may be a part): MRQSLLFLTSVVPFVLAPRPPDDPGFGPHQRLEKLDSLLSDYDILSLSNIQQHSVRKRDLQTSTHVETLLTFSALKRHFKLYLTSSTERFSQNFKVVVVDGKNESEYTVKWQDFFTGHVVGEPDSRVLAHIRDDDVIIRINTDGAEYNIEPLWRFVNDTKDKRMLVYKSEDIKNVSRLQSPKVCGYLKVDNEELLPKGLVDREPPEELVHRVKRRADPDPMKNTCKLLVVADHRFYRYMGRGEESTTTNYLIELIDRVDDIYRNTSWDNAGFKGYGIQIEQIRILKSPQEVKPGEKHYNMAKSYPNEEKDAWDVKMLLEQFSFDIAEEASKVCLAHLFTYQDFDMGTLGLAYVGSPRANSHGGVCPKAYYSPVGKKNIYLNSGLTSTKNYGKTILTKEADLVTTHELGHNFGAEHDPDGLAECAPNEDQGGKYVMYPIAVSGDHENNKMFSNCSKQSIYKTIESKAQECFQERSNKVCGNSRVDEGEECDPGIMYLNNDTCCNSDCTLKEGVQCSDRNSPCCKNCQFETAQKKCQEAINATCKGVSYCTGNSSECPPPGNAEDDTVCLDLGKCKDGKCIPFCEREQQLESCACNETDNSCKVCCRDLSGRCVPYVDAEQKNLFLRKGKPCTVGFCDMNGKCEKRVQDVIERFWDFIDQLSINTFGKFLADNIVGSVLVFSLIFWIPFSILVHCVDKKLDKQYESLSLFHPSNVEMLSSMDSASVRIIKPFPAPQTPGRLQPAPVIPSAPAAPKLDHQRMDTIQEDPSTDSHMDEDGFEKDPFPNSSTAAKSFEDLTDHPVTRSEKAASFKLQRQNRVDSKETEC
Chain of Paired box protein Pax-8 (Q06710 whole entry): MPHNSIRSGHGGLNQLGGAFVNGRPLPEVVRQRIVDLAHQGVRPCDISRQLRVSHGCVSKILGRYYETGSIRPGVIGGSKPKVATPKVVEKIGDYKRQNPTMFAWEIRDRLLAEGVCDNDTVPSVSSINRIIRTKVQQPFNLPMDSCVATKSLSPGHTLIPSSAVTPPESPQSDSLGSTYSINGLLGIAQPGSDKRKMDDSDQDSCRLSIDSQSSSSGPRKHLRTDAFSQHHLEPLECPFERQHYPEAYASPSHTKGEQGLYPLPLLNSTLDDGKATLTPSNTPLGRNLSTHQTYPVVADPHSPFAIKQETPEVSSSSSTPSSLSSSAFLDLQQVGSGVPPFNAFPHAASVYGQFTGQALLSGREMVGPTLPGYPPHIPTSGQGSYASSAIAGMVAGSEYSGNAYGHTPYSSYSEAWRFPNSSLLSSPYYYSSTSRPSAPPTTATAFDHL
Chain of Protein disulfide-isomerase (P07237 whole entry): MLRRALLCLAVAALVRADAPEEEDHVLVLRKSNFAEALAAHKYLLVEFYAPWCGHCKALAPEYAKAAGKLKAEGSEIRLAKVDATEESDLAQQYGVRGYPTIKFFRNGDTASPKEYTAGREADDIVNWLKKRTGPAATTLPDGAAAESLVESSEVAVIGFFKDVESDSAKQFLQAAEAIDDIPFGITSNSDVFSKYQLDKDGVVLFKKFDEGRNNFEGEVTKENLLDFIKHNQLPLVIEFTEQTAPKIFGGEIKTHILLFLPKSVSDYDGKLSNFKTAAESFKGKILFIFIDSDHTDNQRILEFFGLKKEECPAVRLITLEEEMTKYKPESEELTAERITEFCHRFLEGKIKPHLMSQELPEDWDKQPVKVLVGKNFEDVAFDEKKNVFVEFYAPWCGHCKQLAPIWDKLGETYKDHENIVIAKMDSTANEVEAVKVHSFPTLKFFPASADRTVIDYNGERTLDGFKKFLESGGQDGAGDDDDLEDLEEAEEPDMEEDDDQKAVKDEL
Chain of Caspase-8 (Q14790 217-374 limits assumed): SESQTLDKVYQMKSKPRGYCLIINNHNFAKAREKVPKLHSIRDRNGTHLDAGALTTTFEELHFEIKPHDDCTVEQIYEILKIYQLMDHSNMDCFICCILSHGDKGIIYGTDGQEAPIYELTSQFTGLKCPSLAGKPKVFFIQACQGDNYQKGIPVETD
Chain of Caspase-8 (Q14790 385-479 limits assumed): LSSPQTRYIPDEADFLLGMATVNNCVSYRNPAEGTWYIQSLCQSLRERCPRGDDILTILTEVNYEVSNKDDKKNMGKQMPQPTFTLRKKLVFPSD
Chain of Kallikrein-7 (P49862 whole entry): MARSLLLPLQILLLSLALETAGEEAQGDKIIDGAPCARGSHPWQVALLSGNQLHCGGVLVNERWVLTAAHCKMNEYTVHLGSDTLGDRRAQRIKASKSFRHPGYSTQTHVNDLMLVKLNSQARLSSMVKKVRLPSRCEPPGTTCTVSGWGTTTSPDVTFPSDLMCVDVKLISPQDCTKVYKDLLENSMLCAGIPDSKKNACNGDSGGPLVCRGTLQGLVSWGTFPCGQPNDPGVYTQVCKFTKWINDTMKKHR
Chain of Induced myeloid leukemia cell differentiation protein Mcl-1 (Q07820 whole entry): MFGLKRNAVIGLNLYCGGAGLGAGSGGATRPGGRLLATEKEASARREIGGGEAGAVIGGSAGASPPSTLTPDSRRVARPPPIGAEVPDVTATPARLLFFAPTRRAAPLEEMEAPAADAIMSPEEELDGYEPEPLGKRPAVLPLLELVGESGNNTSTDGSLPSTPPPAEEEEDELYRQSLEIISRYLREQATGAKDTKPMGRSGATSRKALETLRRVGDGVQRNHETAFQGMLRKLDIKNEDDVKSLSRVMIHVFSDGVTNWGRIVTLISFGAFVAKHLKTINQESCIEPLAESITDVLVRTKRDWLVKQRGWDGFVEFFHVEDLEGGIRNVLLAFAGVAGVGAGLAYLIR
Chain of Caspase-7 (P55210 24-198 limits assumed): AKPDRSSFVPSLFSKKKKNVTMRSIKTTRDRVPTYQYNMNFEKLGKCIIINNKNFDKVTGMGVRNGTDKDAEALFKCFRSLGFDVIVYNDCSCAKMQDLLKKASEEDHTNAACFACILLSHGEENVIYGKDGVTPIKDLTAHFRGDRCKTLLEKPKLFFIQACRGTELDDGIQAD
Chain of Caspase-7 (P55210 207-303 limits assumed): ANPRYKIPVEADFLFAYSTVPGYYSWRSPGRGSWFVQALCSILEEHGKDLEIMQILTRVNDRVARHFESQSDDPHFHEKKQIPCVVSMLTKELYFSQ
Chain of Bcl-2-like protein 1 (Q07817 whole entry): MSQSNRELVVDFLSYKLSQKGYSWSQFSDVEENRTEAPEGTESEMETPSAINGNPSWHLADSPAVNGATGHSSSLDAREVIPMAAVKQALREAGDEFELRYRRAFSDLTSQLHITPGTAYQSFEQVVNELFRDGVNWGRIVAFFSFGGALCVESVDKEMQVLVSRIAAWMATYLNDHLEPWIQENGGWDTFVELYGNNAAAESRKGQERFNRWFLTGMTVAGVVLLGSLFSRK

IC50 [2]: > 69.5 µM (inactive)
Compound: COc1ccc(CNC(=O)CN(Cc2ccc(Cl)cc2)S(=O)(=O)c2ccccc2)cc1
IC50 [1]: > 69.5 µM (inactive)

Compound: Cc1cc(C)cc(NS(=O)(=O)c2ccc(Oc3ncc(C(F)(F)F)cc3Cl)cc2)c1
IC50 [3]: 12 µM (inactive)
IC50 [4]: > 69.5 µM (inactive)
AC50 [5]: 2.09 µM (active)

EC50 (Kallikrein-7): 3.77 µM (active)
Compound: CNc1cc(C)c(C#N)c2nc3ccccc3n12
EC50 [6]: > 2.58 µM (active)

Compound: O=C(NNc1c2ccccc2nc2ccccc12)c1ccc(O)cc1
AC50 (cells): > 52 µM (inactive)
AC50 [7]: > 52 µM (inactive)

IC50 (Bcl-2-like protein 1): > 109 µM (not active)
AC50 (Caspase-7): 51.2 µM (active)
AC50 (Caspase-6): 1.93 µM (active)
IC50 [8]: > 12.1 µM (not active)
AC50 (Caspase-8): > 70 µM (inactive)
Compound: CCCCN(C(=O)c1cccc(-n2cccc2)c1)c1c(N)n(CCC)c(=O)[nH]c1=O

Compound: OCC1OC(n2cnc3c(NCc4ccco4)ncnc32)C(O)C1O (stereo not drawn)
AC50 [9]: 1.38 µM (active)
AC50 [10]: 3.88 µM (active)
AC50 [11]: 2.94 µM (active)
AC50 [12]: 7.32 µM (active)
AC50 [13]: 6.03 µM (active)
AC50 [14]: 13.8 µM (active)
AC50 [15]: 6.9 µM (active)
AC50 [16]: 36.8 µM (active)
AC50 (Paired box protein Pax-8): 2.41 µM (active)

AC50 [17]: > 30 µM (inactive)
Compound: C=CCOc1ccc(CN2CCC(CCOc3ccccc3)(C(=O)OCC)CC2)cc1Cl

Compound: O=C1CCN(Cc2ccccc2)c2cc3ccccc3cc21
AC50 [18]: > 30 µM (inactive)

IC50 (Fatty acid synthase): 1.36 µM (active)
Compound: CN(C)S(=O)(=O)c1ccc(-c2csc(NC(=O)C3CCC3)n2)cc1

Compound: CC(=O)NC(c1ccc(Cl)cc1)c1ccc2cccnc2c1O (stereo not drawn)
AC50 [19]: 0.299 µM (active)
AC50 [20]: 5.09 µM (active)
AC50 [21]: 5.27 µM (active)
AC50 [22]: 8.52 µM (active)
AC50 [23]: 7.12 µM (active)
AC50 (HEK293): 4.08 µM (active)
AC50 [24]: 2.31 µM (active)
AC50 [25]: 1.47 µM (active)
AC50 [26]: 20.8 µM (active)
AC50 [27]: 4.57 µM (active)
AC50 [28]: 2.68 µM (active)
AC50 [29]: 7.17 µM (active)
AC50 [30]: 0.977 µM (active)
AC50 [31]: 4.43 µM (active)
AC50 [32]: 18.1 µM (active)
AC50 [33]: 1.57 µM (active)
AC50 (Paired box protein Pax-8): 2.09 µM (active)
